Data: patent US20010051636A1, “Combination treatment for inhibiting bone loss” (priority 1994, published 2001)
Marks after values point to notes of the source that are not given here.

How the values were obtained:
Format in all cases: in vivo
[1] = tested on: ovariectomized (ovex) rats; experiment: 5-week ovex rat model of post-menopausal osteoporosis: femur density by X-ray grey scale image analysis; conditions: for anti-resorptive activity (in words): 0.1 mg/kg, each compound separately; for RANGE 0-60 (relative density of bone, femur X-ray grey scale): Table 3
Experimental: In the following, a model of post-menopausal osteoporosis was used in which effects of different treatments upon femur density were determined.
Seventy-five day old female Sprague Dawley rats (weight range of 225 to 275 g) were obtained from Charles River Laboratories (Portage, Mich.). They were housed in groups of 3 and had ad libitum access to food (calcium content approximately 1%) and water. Room temperature was maintained at 22.2°±1.7° C. with a minimum relative humidity of 40%. The photoperiod in the room was 12 hours light and 12 hours dark.
One week after arrival, the rats underwent bilateral ovariectomy under anesthesia (44 mg/kg Ketamine and 5 mg/kg Xylazine (Butler, Indianapolis, Ind.) administered intramuscularly). Treatment with vehicle or the indicated compound was initiated either on the day of surgery following recovery from anesthesia or 35 days following the surgery.
Oral dosage was by gavage in 0.5 mL of 1% carboxymethylcellulose (CMC).
(§1) Body weight was determined at the time of surgery and weekly during the study, and the dosage was adjusted with changes in body weight. Vehicle-treated ovariectomized (ovex) rats and non-ovariectomized (intact) rats were evaluated in parallel with each experimental group to serve as negative and positive controls.
(§2) The rats were treated daily for 35 days (6 rats per treatment group) and sacrificed by decapitation on the 36th day. […] At the time of sacrifice, the uteri were removed, dissected free of extraneous tissue, and the fluid contents were expelled before determination of wet weight in order to confirm estrogen deficiency associated with complete ovariectomy. […] The uteri were then placed in 10% neutral buffered formalin to allow for subsequent histological analysis.
The right femurs are excised and scanned at the distal metaphysis proximal from the growth plate region by grey scale image analysis of digitalized X-ray generation on a Nicolet NXR-1200 real time X-ray imaging system.

[2] = Body weight change in the ovex rat study BBA-9311
Experimental: as §1

[3] = tested on: ovariectomized (ovex) rats; experiment: Uterine wet weight in the ovex rat study BBA-9311
Experimental: as §2

[4] = Table 1, 1 mg/kg PO CDX, 47KV/4.5C, 35 days

SMILES	anti-resorptive activity (in words) [1]	Ave BW Chg ([2]; Table 4 BBA-9311, 1 mg/kg)	Ave BW Chg ([2]; Table 4 BBA-9311, .1 mg/kg)	Ave Ut Wt ([3]; Table 4 BBA-9311, 1 mg/kg)	Ave Ut Wt ([3]; Table 4 BBA-9311, .1 mg/kg)	RANGE 0-50 (relative density of bone, femur X-ray grey scale) [1, 4]	also measured
NCCCC(O)(P(=O)(O)O)P(=O)(O)O [ALN, Alendronate]	inactive	106.000	102.167	108.667	100.833		
C#C[C@]1(O)CC[C@H]2[C@@H]3CCc4cc(O)ccc4[C@H]3CC[C@@]21C [EE2, ethynylestradiol]							RANGE 0-50 (relative density of bone, femur X-ray grey scale) ([1]; Table 1, 100 μg/kg PO CDX): 51.29*; RANGE 0-50 (relative density of bone, femur X-ray grey scale) ([1]; Table 2, 30 μg/kg PO CDX): 50.87; RANGE 0-50 (relative density of bone, femur X-ray grey scale) ([1]; Table 2, 100 μg/kg PO CDX): 61.09*; RANGE 0-60 (relative density of bone, femur X-ray grey scale) ([1]; 100 μg/kg PO CDX): 62.88*; Ave BW Chg ([2]; Table 4, 100 μg/kg): 49.000; Ave Ut Wt ([3]; Table 4, 100 μg/kg): 399.000
CC(=O)O[C@]1(C(C)=O)CC[C@H]2[C@@H]3C[C@H](C)C4=CC(=O)CC[C@]4(C)[C@H]3CC[C@@]21C [Provera]						30.10	protection from bone loss (in words) ([1]; 10 mg/kg, by itself): protective effect; RANGE 0-50 (relative density of bone, femur X-ray grey scale) ([1]; Table 1, 10 mgmg/kg PO CDX, 47KV/4.5C, 35 days): 64.16*
Cl.O=C(c1ccc(OCCN2CCCCC2)cc1)c1c(-c2ccc(O)cc2)sc2cc(O)ccc12 [RAL, [6-hydroxy-2-(4-hydroxyphenyl)benzo[b]thien-3-yl][4-[2-(1-piperidinyl)ethoxy]phenyl]methanone hydrochloride]	inactive	49.667	75.833	166.000	157.667	57.67*	RANGE 0-50 (relative density of bone, femur X-ray grey scale) ([1]; Table 2, 1 mg/kg PO CDX): 80.98*; RANGE 0-60 (relative density of bone, femur X-ray grey scale) ([1]; 0.1 mg/kg PO CDX, 47KV/4.5C): 36.76; RANGE 0-60 (relative density of bone, femur X-ray grey scale) ([1]; 1 mg/kg PO CDX): 40.37
